Assay results as given in patent US20140017230A1, “CHRONIC LYMPHOCYTIC LEUKEMIA (CLL) BIOMARKERS” (HOFFMANN-LAROCHE INC., priority 2011, published 2014).

Key:
CLL patients = experiment: Phase III trial in CLL patients, R-FC vs FC: progression free survival (PFS) by pretreatment biomarker expression in CD19+ PBMC; assay type: in vivo, human; conditions: for Median PFS PTK2 Exon 1.0 ST / Median PFS PTK2 U133 plus2.0 / Median PFS PTK2 qRT-PCR / Median PFS miRNA151 DISCOVARRAY / Median PFS miRNA151 qRT-PCR / Median PFS miRNA409 DISCOVARRAY / Median PFS miRNA409 qRT-PCR: CLL patients; for Median PFS PTK2 Exon 1.0 ST / Median PFS PTK2 U133 plus2.0 / Median PFS PTK2 qRT-PCR: PTK2 expression in CD19+ cells
Procedure: Pretreatment patient samples were analyzed from an international, multicenter, open-label, phase III trial, randomizing CLL patients to receive R-FC (rituximab plus fludarabine/cyclophosphamide) or FC (fludarabine/cyclophosphamide) alone. […] The study protocol was approved by institutional review boards at participating centers and all patients gave written informed consent. Details on trial design and eligibility criteria have been described in Robak et al. J. Clin. Oncol. 28(10):1756-1765 (2010). Patients were selected on the availability of RNA and the written informed consent to participate in molecular genetic analyses of peripheral blood samples.
Pretreatment Peripheral Blood Mononuclear Cell (PBMC) samples positively selected for CD19+ cells were available from n=301 patients. CD19 separation was performed by magnetic bead separation according to the manufacturer's protocol (Miltenyi, Germany).
Pretreatment clinical features i.e demographics, prognostic markers (cytogenetic aberrations like del(17p), del(11q), ZAP70 and CD38 expression, IgVH status), progression free survival (PFS) were compared using the Fisher's exact, Mann-Whitney, or log-rank tests. A p-value of <0.05 was considered statistically significant.
Two approaches using a Cox regression model were used to identify genes and miRNA associated with survival. First approach considered the models below.
For the different tables and graphs appearing in this document where median PFS was computed, mRNA and miRNA signal intensities were dichotomized using the median value as a cutoff.

[1] = test system: 3′UTR luciferase reporter constructs in HeLa cells; experiment: 3′UTR luciferase reporter assay with miRNA151 3p mimic vs scrambled mimic; assay type: cell-based; conditions: 10 nM mimic, 24 hours post-transfection, normalized to scrambled control
Procedure: Predicted targets were downloaded from TARGETSCAN 5.1™ (http://www.targetscan.org/) and expression was extracted from the mRNA expression profiling data, irrespective of predicted site conservation. Anti-correlations with miRNAs were determined by comparing miRNA array and mRNA array data and computing Pearson correlation coefficients. […] Subsequently, 3′UTRs that met this threshold were cloned upstream into 3′UTR luciferase reporter constructs (Switchgear Genomics) and 100 ng of each construct was transfected into HeLa cells (ATCC) with 25 ng pRL-CMV, 10 nM miRNA151 3p mimic (Dharmacon) or scrambled mimic in 96-well plates. Luciferase activity was determined 24 hours post-transfection and all data were normalized to renilla luciferase transfection control and scrambled control mimic. Three biological replicates were performed. Statistical significance for a difference between scrambled control and miRNA151 3p mimic was determined by a 2-sided Student's t-test.

[2] = miRNA signal < median miRNA signal
[3] = miRNA signal > median miRNA signal

Q: Which results are given for fludarabine/cyclophosphamide [FC]?
A: HR for PFS, miRNA151 < median vs > median within treatment arm (CLL patients; Array): 0.99; HR for PFS, miRNA409 < median vs > median within treatment arm (CLL patients; Array): 1.12; Median PFS PTK2 Exon 1.0 ST (CLL patients; gene < median): 17.9 months; Median PFS PTK2 U133 plus2.0 (CLL patients; gene < median): 17.9 months; Median PFS PTK2 qRT-PCR (CLL patients; gene < median): 17.9 months; Median PFS PTK2 Exon 1.0 ST (CLL patients; gene > median): 21.5 months; Median PFS PTK2 U133 plus2.0 (CLL patients; gene > median): 21.5 months; Median PFS PTK2 qRT-PCR (CLL patients; gene > median): 21.5 months; Median PFS miRNA151 DISCOVARRAY (CLL patients; [2]): 18 months; Median PFS miRNA151 qRT-PCR (CLL patients; [2]): 17.9 months; Median PFS miRNA409 DISCOVARRAY (CLL patients; [2]): 21.6 months; Median PFS miRNA409 qRT-PCR (CLL patients; [2]): 18.3 months; Median PFS miRNA151 DISCOVARRAY (CLL patients; [3]): 18.5 months; Median PFS miRNA151 qRT-PCR (CLL patients; [3]): 20.7 months; Median PFS miRNA409 DISCOVARRAY (CLL patients; [3]): 18 months; Median PFS miRNA409 qRT-PCR (CLL patients; [3]): 18.3 months; HR for PFS, PTK2 < median vs > median within treatment arm (CLL patients; Exon 1.0 ST, CD19+ cells): 0.86; HR for PFS, miRNA151 < median vs > median within treatment arm (CLL patients; RT-PCR): 0.84; HR for PFS, miRNA409 < median vs > median within treatment arm (CLL patients; RT-PCR): 1.03; HR for PFS, PTK2 < median vs > median within treatment arm (CLL patients; U133 + 2, CD19+ cells): 0.86; HR for PFS, PTK2 < median vs > median within treatment arm (CLL patients; qRT-PCR, CD19+ cells): 0.77

Q: How did the “3′UTRs showing a statistically significant reduction in luciferase activity (5 out of the 18)” value [1] turn out when “miRNA151 3p: miRNA151 3p mimic (Dharmacon); miRNA comprising the sequence CUAGACUGAAGCUCCUUGAGG (SEQ ID NO: 1) (synthetic mimic duplex, passenger strand not listed, further chemistry not given here; listed as Homo sapiens)” was run?
A: 28%
